# Laboratory results reported in patent US7205127B2 (priority 2002, dated 2007).
# Experiments:
# NAD(P)H oxidase = target: T1, NAD(P)H oxidase (Homo sapiens, UniProt P19878); conditions: most likely via binding to p67phox; cited from earlier work
# T1 sequence (P19878 1-526): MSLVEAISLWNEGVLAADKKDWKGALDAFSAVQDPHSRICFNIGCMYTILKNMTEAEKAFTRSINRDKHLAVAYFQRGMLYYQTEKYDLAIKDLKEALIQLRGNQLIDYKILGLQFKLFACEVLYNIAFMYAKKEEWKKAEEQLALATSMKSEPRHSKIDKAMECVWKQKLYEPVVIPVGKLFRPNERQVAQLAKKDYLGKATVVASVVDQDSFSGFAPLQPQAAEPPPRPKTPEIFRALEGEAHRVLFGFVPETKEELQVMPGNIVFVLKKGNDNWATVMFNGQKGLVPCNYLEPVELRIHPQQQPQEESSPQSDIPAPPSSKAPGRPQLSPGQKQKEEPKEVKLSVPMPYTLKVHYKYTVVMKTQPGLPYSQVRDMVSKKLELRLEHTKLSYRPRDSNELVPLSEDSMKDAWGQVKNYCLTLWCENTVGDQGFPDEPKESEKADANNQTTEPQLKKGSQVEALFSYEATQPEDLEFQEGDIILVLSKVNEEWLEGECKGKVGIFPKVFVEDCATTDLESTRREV
# differentiated L6 cells = assay: 2-deoxy-glucose transport (glucose uptake) assay in differentiated L6 myotubes; type: cell-based, rat
# Experimental: Rat skeletal muscle L6-K cells were grown in minimal essential medium (α-MEM Glutamax I) containing 10% fetal bovine serum at 37° C., 5% CO2. The cells were passaged twice weekly by treatment with trypsin-EDTA and transfer of ⅓ of the cells to new flasks with fresh culture medium. For differentiation into myotubes, 30,000 cells were seeded in 1 ml in 24-well plates. When the cells were confluent, usually after 3 days, the medium was replaced by differentiation medium consisting of α-MEM, 2% fetal bovine serum and penicillin/streptomycin at a concentration of 100 U/ml and 100 μg/ml, respectively. The medium was replaced every 2–3 days. Between days 4–7, differentiation medium containing 1 mM cytidine was used. The cells were differentiated for 8–10 days before being used in experiments.
# On the day before the glucose transport assay, the wells of the culture plate were emptied and 1 ml serum free DMEM containing 5 mM glucose and penicillin/streptomycin was added. In some experiments the cells were treated over night with test compounds in 1 ml and additional treatments were added the next day to give a total volume of 2 ml. In these experiments, insulin (100–1000 nM) was added in 0.2 ml. When all treatments were performed after 20–24 h in serum free medium, a total volume of 1 ml was used. The wells were emptied and 0.5 ml prewarmed PBS without Ca^2+/mg^2+ containing 1 μCi/ml radioactive 2-deoxy-glucose added. After 10 min at 37° C., the wells were emptied and washed three times with cold PBS. The cell monolayer was solubilized in 0.5 ml 0.5 M NaOH for 3 h at room temperature. 400 μl was mixed with 8 ml scintillation fluid (Optiphase, Wallac) and counted in a scintillation counter (Packard TriCarb). Two 10-μl aliquots were used for determination of protein concentration using the method according to Bradford (Anal. Biochem., 1976, 72:248–54) from BioRad.
# This effect is seen when cells are stimulated with 0.1–10 μM DPI for 1 h. A bell-shaped dose response curve for DPI with an optimum at 1 μM is recorded. The effect of suboptimal concentrations of DPI during a 1 h treatment could be stimulated further if insulin is added 30 min after DPI. However, insulin has little additional effect when the maximum effect of DPI is reached in the 1 h protocol (FIG. 1). The effective concentrations at which DPI stimulates glucose transport corresponds well to the concentrations inhibiting NAD(P)H oxidase activity in cell free systems [O'Donnell et al., Biochemical Journal, 290:41–9 (1993)]. […] On the basis of the above results it is postulated that DPI enhances a constitutive activity of the insulin receptor and/or the intracellular insulin-signaling pathway.
# Assuming that the enhancing effect of DPI on insulin signaling was due to inhibition of ROS production, it was investigated whether an exogenous source of H2O2 could counteract the effect of DPI. To this end, L6 cells were treated with 25 mU/ml of glucose oxidase for 30 min before addition of DPI.
# C57BL/6J ob/ob mice = conditions: 1 mg/kg i.p. once daily for 4 days
# Experimental: Studies were conducted in vivo, in an animal model of obesity characterized by insulin resistance. Eight-month old C57BL/6J ob/ob mice (M&B A/S, Denmark) were matched for sex, weight and fasting blood glucose concentrations. The animals were injected intraperitoneally once daily with DPI (1 mg/kg) or water for 4 days. On day 5, the animals were fasted for 2.5 h and then given an i.p. injection of human insulin 0.5 U/kg (Actrapid, Novo Nordisk, Denmark) and their blood glucose levels were monitored for 4 h by sampling from the tail. The glucose concentration was determined using a Glucometer Accutrend Sensor (Roche).
# [1] = tested on: thioredoxin-gp91phox fusion protein; conditions: in the presence of NAD(P)H and FAD; cited from earlier work
compound,measurement,setting,value
Mastoparan,NAD(P)H oxidase activation,NAD(P)H oxidase,inhibit NAD(P)H oxidase activation
"insulin: bovine insulin purchased from Sigma, used to stimulate glucose transport",reduction of insulin stimulated glucose transport by glucose oxidase,"differentiated L6 cells; L6 cells treated with 25 mU/ml glucose oxidase, 200 nM insulin (FIG. 2)",65%
"c1ccc2c(c1)[I+]c1ccccc1-2 [DPI, Diphenylene iodonium]",optimum of bell-shaped dose response curve for glucose uptake,differentiated L6 cells; 1 h treatment,1 µM
same,reduction of stimulatory effect on glucose transport by glucose oxidase,differentiated L6 cells; L6 cells treated with 25 mU/ml glucose oxidase for 30 min before addition of DPI (FIG. 2),68%
same,concentrations at which the increase in glucose uptake is seen,differentiated L6 cells; cells stimulated for 1 h,0.1 to 10 µM
same,glucose uptake,differentiated L6 cells; differentiated L6 cells incubated with DPI for 1 h (FIG. 1),significant increase
same,side effects of treatment,C57BL/6J ob/ob mice; ob/ob mice,Without any overt side effects
same,blood glucose levels versus control group,C57BL/6J ob/ob mice; 1–4 h after injection of insulin 0.5 U/kg (FIG. 3),significantly lower blood glucose levels
same,diaphorase activity of thioredoxin-gp91phox fusion protein,[1],inhibited
